Laboratory results: the RepoRT retention time repository (doi:10.1021/acs.analchem.1c00972)

Assays:
[1] = RP, Waters ACQUITY UPLC BEH C18, 100 × 1 mm, 1.7 µm, 50 °C, 0.3 mL/min, estimated dead time 0.17 min; A: water + 0.1% formic acid + 20 mM ammonium formate; B: methanol + 0.1% formic acid + 20 mM ammonium formate; gradient (min/%B) 0/0 15/100 21/100 22/0 30/0; details: stereoisomer not certain
[2] = RP, Waters ACQUITY UPLC BEH C18, 100 × 1 mm, 1.7 µm, 50 °C, 0.3 mL/min, estimated dead time 0.17 min; A: water + 10 mM ammonium bicarbonate; B: 10% water + 90% methanol + 10 mM ammonium bicarbonate; gradient (min/%B) 0/0 15/100 21/100 22/0 30/0; details: stereoisomer not certain

CNC(=O)Oc1cccc2c1OC(C)(C)C2O (configuration not stated) [3-Hydroxycarbofuran]
LC retention time [1]: 9.35 min
LC retention time [2]: 9.47 min

CN(Cc1nc2c(N)nc(N)nc2[nH]c1=O)c1ccc(C(=O)NC(CCC(=O)O)C(=O)O)cc1 (configuration not stated) [7-Hydroxymethotrexat]
LC retention time [1]: 8.94 min
LC retention time [2]: 6.65 min

c1ccc2sc(N3CCOCC3)nc2c1 [2(4-morpholinyl)benzothiazole]
LC retention time [1]: 12.7 min
LC retention time [2]: 13.2 min

CCN(CC)c1ccc2c(C)cc(=O)oc2c1 [7-Diethylamino-4-methylcoumarin]
LC retention time [1]: 14.4 min
LC retention time [2]: 14.7 min

Cc1[nH]c(=O)n(C(C)(C)C)c(=O)c1Cl [Terbacil]
LC retention time [1]: 11.8 min
LC retention time [2]: 12 min

CC(=O)C1(O)CCC2C3CC(C)C4=CC(=O)C=CC4(C)C3(F)C(O)CC21C (configuration not stated) [Fluorometholone]
LC retention time [1]: 13.8 min
LC retention time [2]: 14.1 min

Cc1cccc(Cl)c1NC(=O)N(C)C [3-(2-CHLORO-6-METHYLPHENYL)-1,1-DIMETHYLUREA]
LC retention time [1]: 10 min
LC retention time [2]: 10.1 min

Cc1c(Cl)cccc1Nc1ccccc1C(=O)O [Tolfenamics<e4>ure]
LC retention time [1]: 16.7 min
LC retention time [2]: 14.4 min

CC[N+]1([O-])CCCC1CNC(=O)c1cc(S(N)(=O)=O)ccc1OC (configuration not stated) [Sulpiride N-Oxide]
LC retention time [1]: 6.62 min
LC retention time [2]: 6.84 min

Cc1ncc2n1-c1ccc(Cl)cc1C(c1ccccc1F)=NC2 [Midazolam]
LC retention time [1]: 11.4 min
LC retention time [2]: 14.6 min

CCCc1nc(C)c2c(=O)[nH]c(-c3cc(S(=O)(=O)N4CCN(CC)CC4)ccc3OCC)nn12 [Vardenafil]
LC retention time [1]: 12.2 min
LC retention time [2]: 14.8 min

CC(=O)OCC(=O)C12OC3(CCCC3)OC1CC1C3CCC4=CC(=O)C=CC4(C)C3(F)C(O)CC12C (configuration not stated) [Amcinonide]
LC retention time [1]: 15.6 min
LC retention time [2]: 16 min

CN(C)c1ccncc1 [4-(Dimethylamino)pyridine]
LC retention time [1]: 4.07 min
LC retention time [2]: 7.04 min

CCC1CCCC(OC2CCC(N(C)C)C(C)O2)C(C)C(=O)C2=CC3C(C=C(C)C4CC(OC5OC(C)C(OC)C(OC)C5OC)CC43)C2CC(=O)O1 (single isomer, unassigned; isomer 2) [Spinosad (Isomer 2)]
LC retention time [1]: 16.1 min
LC retention time [2]: 19.2 min

CC(C)(C)C(O)C(Cc1ccc(Cl)cc1)n1cncn1 (configuration not stated) [Paclubutrazole]
LC retention time [1]: 14.4 min
LC retention time [2]: 14.6 min

CN1Cc2c(ccc3c2OCO3)C2C(O)Cc3cc4c(cc3C21)OCO4 (single isomer, unassigned; (+)) [(+)-Chelidonine]
LC retention time [1]: 9.34 min
LC retention time [2]: 15.3 min

CCOC(=O)CCN(Cc1ccccc1)SN(C)C(=O)ON=C(C)SC [Alanycarb]
LC retention time [1]: 15.5 min
LC retention time [2]: 15.8 min

CC12C=CC(=O)C=C1CCC1C3CC(O)C(O)(C(=O)CO)C3(C)CC(O)C12F (configuration not stated) [Triamcinolone]
LC retention time [1]: 10 min
LC retention time [2]: 10.1 min

CC1CC2C3CCC4=CC(=O)C=CC4(C)C3(F)C(O)CC2(C)C1(O)C(=O)CCl (configuration not stated) [Clobetasol]
LC retention time [1]: 14.1 min
LC retention time [2]: 14.4 min

c1ccc2nc3ccccc3cc2c1 [Acridin]
LC retention time [1]: 8.84 min
LC retention time [2]: 14.6 min

O=C1CCCCCCCCCCC1 [Cyclododecanone]
LC retention time [1]: 16.1 min
LC retention time [2]: 16.5 min

Nc1ccc(S(=O)(=O)Nc2ncccn2)cc1 [Sulfadiazin]
LC retention time [1]: 6 min
LC retention time [2]: 2.61 min

CCCSc1ccc2nc(NC(=O)OC)[nH]c2c1 [Albendazole]
LC retention time [1]: 13.1 min
LC retention time [2]: 14.2 min

CC12CCC(=O)C=C1C=CC1C2CCC2(C)C1CCC21CCC(=O)O1 (configuration not stated) [Canrenone]
LC retention time [1]: 14.2 min
LC retention time [2]: 14.5 min

CCN(CC)C(=O)SCc1ccccc1Cl [Orbencarb]
LC retention time [1]: 15.9 min
LC retention time [2]: 16.3 min

COc1cc2c(cc1OC)C1Cc3ccc(OC)c(OC)c3CN1CC2 (configuration not stated) [Tetrahydropalmatin]
LC retention time [1]: 9.6 min
LC retention time [2]: 14.8 min

CC(O)C(=O)Nc1c(I)c(C(=O)NC(CO)CO)c(I)c(C(=O)NC(CO)CO)c1I (configuration not stated) [Iopamidol]
LC retention time [1]: 3.66 min
LC retention time [2]: 3.64 min

CN1C2CC(OC(=O)C(CO)c3ccccc3)CC1C1OC12 (single isomer, unassigned; (-)) [(-)-Scopolamine]
LC retention time [1]: 7.05 min
LC retention time [2]: 11.2 min

CCC(=O)OC1(C(=O)SCF)C(C)CC2C3CC(F)C4=CC(=O)C=CC4(C)C3(F)C(O)CC21C (configuration not stated) [Fluticasone propionate]
LC retention time [1]: 15.3 min
LC retention time [2]: 15.6 min

CC1CCC2(OC1)OC1CC3C4CC=C5CC(O)CCC5(C)C4CCC3(C)C1C2C (configuration not stated) [Diosgenin]
LC retention time [1]: 19 min
LC retention time [2]: 19.6 min

Clc1nc2ccccc2s1 [2-Chlorobenzothiazole]
LC retention time [1]: 13.5 min
LC retention time [2]: 13.8 min
